Measured values published in US12303505B2, “Tumor-treating pharmaceutical composition” (Eisai R&D Management Co., Ltd., priority 2017, dated 2025).
Structures can show the parent of a compound that is named as a salt.

How the values were obtained:
Format in all cases: in vivo
[1] = system: transgenic mouse (MMTV-Wnt-1) spontaneous breast cancer; experiment: Antitumor effect in serial transplantation model of transgenic mouse (MMTV-Wnt-1) spontaneous breast cancer, C57BL/6J mice
Procedure: Spontaneous breast cancer of a transgenic mouse (MMTV-Wnt-1, The Jackson Laboratory) caused to locally express Wnt-1 in mammary gland epithelial cells was collected, transplanted in a mouse of background strain (C57BL/6J, Charles River Laboratories Japan, Inc.) by using a trocar, and passaged. The tumor thus transplanted and passaged was excised when becoming approximately 1.5 g, and prepared into approximately 30 mg of a fragment, which was subcutaneously transplanted to the sides of the bodies of five mice (C57BL/6J) each of a control group, an E7386 12.5, 25 or 50 mg/kg alone administration group, a lenvatinib mesylate 10 mg/kg alone administration group, and a combined administration group of 12.5, 25 or 50 mg/kg E7386 and 10 mg/kg lenvatinib mesylate. After confirmation of engraftment of the tumor, E7386 (12.5, 25 or 50 mg/kg, b.d.s., 14 days, oral administration) and lenvatinib mesylate (10 mg/kg, q.d., 14 days, oral administration) were administered alone or in combination to the alone administration group or the combined administration group. For the administration, E7386 was dissolved in 0.1 mol/L hydrochloric acid, and lenvatinib mesylate was dissolved in 3 mmol/L hydrochloric acid. 0.1 mol/L hydrochloric acid (b.d.s., 14 days) was administered to the control group.
When the start day of administration was defined as day 1, the major axis and minor axis of tumor developed in each mouse were then measured at day 4, day 8, day 11, and day 15 by using Digimatic Caliper (Mitutoyo Corp.).
The tumor volume and the relative tumor volume (RTV) were calculated according to the following expressions. Tumor volume (mm^3)=Tumor major axis (mm)×Tumor minor axis^2 (mm)/2 Relative tumor volume (RTV)=Tumor volume at the measurement day/Tumor volume at the start day of administration

[2] = system: Mouse breast cancer 4T1 cells; experiment: Antitumor effect in mouse breast cancer 4T1 orthotopic transplantation model
Procedure: Mouse breast cancer 4T1 cells (ATCC) were cultured by using RPMI1640 medium (Sigma-Aldrich Co. LLC) containing 10% FBS in a 5% CO2 incubator under conditions of 37° C. When the cells became an approximately 80% confluent state, the cells were recovered by using trypsin-EDTA. A suspension was prepared by adding Hank's balanced salt solution so as to be 1.0×10^7 cells/mL. 0.1 mL of the obtained cell suspension was transplanted to the right third mammary gland fat pads of five mice ([…], Charles River Laboratories Japan, Inc.) each of a control group, an E7386 25 mg/kg alone administration group, a lenvatinib mesylate 10 mg/kg alone administration group, and a combined administration group of 25 mg/kg E7386 and 10 mg/kg lenvatinib mesylate. From 9 days after the transplantation, E7386 (25 mg/kg, b.d.s., 14 days, oral administration) and lenvatinib mesylate (10 mg/kg, q.d., 14 days, oral administration) were administered alone or in combination to the alone administration group or the combined administration group. For the administration, E7386 was dissolved in 0.1 mol/L hydrochloric acid, and lenvatinib mesylate was dissolved in 3 mmol/L hydrochloric acid. Any drug was not administered to the control group.
When the start day of administration was defined as day 1, the major axis and minor axis of tumor developed in each mouse were then measured at day 3, day 6, day 9, and day 14 by using Digimatic Caliper (Mitutoyo Corp.).
(§1) The tumor volume and the relative tumor volume (RTV) were calculated according to the following expressions. Tumor volume (mm^3)=Tumor major axis (mm)×Tumor minor axis^2 (mm^2)/2 Relative tumor volume (RTV)=Tumor volume at the measurement day/Tumor volume at the start day of administration

[3] = system: Human colorectal cancer line Colo-205 cells; experiment: Antitumor effect in human colorectal cancer line Colo-205 transplantation model, nude mice
Procedure: Human colorectal cancer line Colo-205 cells (ATCC) were cultured by using RPMI1640 medium (Wako Pure Chemical Industries, Ltd.) containing 10% FBS in a 5% CO2 incubator under conditions of 37° C. When the cells became an approximately 80% confluent state, the cells were recovered by using trypsin-EDTA. A suspension was prepared by adding Hank's balanced salt solution to the cells so as to be 5.0×10^7 cells/mL. 0.1 mL of the obtained cell suspension was subcutaneously transplanted to the sides of the bodies of five nude mice (CAnN.Cg-Foxn1^nu/CrlCrlj, Charles River Laboratories Japan, Inc.) each of a control group, an E7386 50 mg/kg alone administration group, a lenvatinib mesylate 10 mg/kg alone administration group, and a combined administration group of 50 mg/kg E7386 and 10 mg/kg lenvatinib mesylate. From 8 days after the transplantation, E7386 (50 mg/kg, q.d., 11 days, oral administration) and lenvatinib mesylate (10 mg/kg, q.d., 11 days, oral administration) were administered alone or in combination to the alone administration group or the combined administration group. For the administration, E73 86 was dissolved in 0.1 mol/L hydrochloric acid, and lenvatinib mesylate was dissolved in 3 mmol/L hydrochloric acid. Any drug was not administered to the control group.
When the start day of administration was defined as day 1, the major axis and minor axis of tumor developed in each mouse were then measured at day 4, day 8, and day 12 by using Digimatic Caliper (Mitutoyo Corp.).
as §1

[4] = Day 4, lenvatinib mesylate 10 mg/kg q.d. oral alone
[5] = Day 8, lenvatinib mesylate 10 mg/kg q.d. oral alone

## C=CCN1CC(=O)N2[C@@H](Cc3ccc(O)cc3F)C(=O)N(Cc3cccc(N4CC(N5CCN(CC)CC5)C4)n3)C[C@@H]2N1C(=O)NCc1ccccc1 [E7386, (6S,9aS)—N-Benzyl-8-({6-[3-(4-ethylpiperazin-1-yl)azetidin-1-yl]pyridin-2-yl}methyl)-6-(2-fluoro-4-hydroxybenzyl)-4,7-dioxo-2-(prop-2-en-1-yl)hexahydro-2H-pyrazino[2,1-c][1,2,4]triazine-1(6H)-carboxamide]
[1]; Day 4, E7386 12.5 mg/kg b.d.s. oral alone
  Relative tumor volume (RTV), mean±SD: 1.34 ± 0.25
[1]; Day 4, E7386 25 mg/kg b.d.s. oral alone
  Relative tumor volume (RTV), mean±SD: 1.26 ± 0.28
[1]; Day 4, E7386 50 mg/kg b.d.s. oral alone
  Relative tumor volume (RTV), mean±SD: 0.93 ± 0.23
[1]; Day 8, E7386 12.5 mg/kg b.d.s. oral alone
  Relative tumor volume (RTV), mean±SD: 1.20 ± 0.40
[1]; Day 8, E7386 25 mg/kg b.d.s. oral alone
  Relative tumor volume (RTV), mean±SD: 1.56 ± 0.48
[1]; Day 8, E7386 50 mg/kg b.d.s. oral alone
  Relative tumor volume (RTV), mean±SD: 1.05 ± 0.26
[1]; Day 11, E7386 12.5 mg/kg b.d.s. oral alone
  Relative tumor volume (RTV), mean±SD: 1.70 ± 0.67
[1]; Day 11, E7386 25 mg/kg b.d.s. oral alone
  Relative tumor volume (RTV), mean±SD: 2.40 ± 0.22
[1]; Day 11, E7386 50 mg/kg b.d.s. oral alone
  Relative tumor volume (RTV), mean±SD: 1.34 ± 0.35
[1]; Day 15, E7386 12.5 mg/kg b.d.s. oral alone
  Relative tumor volume (RTV), mean±SD: 2.12 ± 0.65
[1]; Day 15, E7386 25 mg/kg b.d.s. oral alone
  Relative tumor volume (RTV), mean±SD: 3.69 ± 0.92
[1]; Day 15, E7386 50 mg/kg b.d.s. oral alone
  Relative tumor volume (RTV), mean±SD: 1.59 ± 1.03
[2]; Day 3, E7386 25 mg/kg b.d.s. oral alone
  Relative tumor volume (RTV), mean±SD: 1.59 ± 0.38
[2]; Day 6, E7386 25 mg/kg b.d.s. oral alone
  Relative tumor volume (RTV), mean±SD: 1.75 ± 0.42
[2]; Day 9, E7386 25 mg/kg b.d.s. oral alone
  Relative tumor volume (RTV), mean±SD: 2.17 ± 0.76
[2]; Day 14, E7386 25 mg/kg b.d.s. oral alone
  Relative tumor volume (RTV), mean±SD: 2.32 ± 0.68
[3]; Day 4, E7386 50 mg/kg q.d. oral alone
  Relative tumor volume (RTV), mean±SD: 1.98 ± 0.24
[3]; Day 8, E7386 50 mg/kg q.d. oral alone
  Relative tumor volume (RTV), mean±SD: 3.87 ± 0.74
[3]; Day 12, E7386 50 mg/kg q.d. oral alone
  Relative tumor volume (RTV), mean±SD: 4.94 ± 1.41

## COc1cc2nccc(Oc3ccc(NC(=O)NC4CC4)c(Cl)c3)c2cc1C(N)=O [Lenvatinib mesylate, 4-(3-chloro-4-(cyclopropylaminocarbonyl)aminophenoxy)-7-methoxy-6-quinolinecarboxamide, reference compound]
[1]; [4]
  Relative tumor volume (RTV), mean±SD: 1.03 ± 0.13
[1]; [5]
  Relative tumor volume (RTV), mean±SD: 0.87 ± 0.13
[1]; Day 11, lenvatinib mesylate 10 mg/kg q.d. oral alone
  Relative tumor volume (RTV), mean±SD: 0.98 ± 0.21
[1]; Day 15, lenvatinib mesylate 10 mg/kg q.d. oral alone
  Relative tumor volume (RTV), mean±SD: 1.05 ± 0.25
[2]; Day 3, lenvatinib mesylate 10 mg/kg q.d. oral alone
  Relative tumor volume (RTV), mean±SD: 1.36 ± 0.28
[2]; Day 6, lenvatinib mesylate 10 mg/kg q.d. oral alone
  Relative tumor volume (RTV), mean±SD: 1.46 ± 0.28
[2]; Day 9, lenvatinib mesylate 10 mg/kg q.d. oral alone
  Relative tumor volume (RTV), mean±SD: 1.75 ± 0.41
[2]; Day 14, lenvatinib mesylate 10 mg/kg q.d. oral alone
  Relative tumor volume (RTV), mean±SD: 1.99 ± 0.26
[3]; [4]
  Relative tumor volume (RTV), mean±SD: 1.41 ± 0.30
[3]; [5]
  Relative tumor volume (RTV), mean±SD: 1.75 ± 0.13
[3]; Day 12, lenvatinib mesylate 10 mg/kg q.d. oral alone
  Relative tumor volume (RTV), mean±SD: 1.94 ± 0.31
